We go through 17 molecules from ChEMBL document CHEMBL1201862, “PubChem BioAssay data set” (2004).

The target of test [1] is DNA dC->dU-editing enzyme APOBEC-3A (Homo sapiens, UniProt P31941). Description: Dose Response confirmation of small molecule APOBEC3A DNA Deaminase Inhibitors via a fluorescence-based single-stranded DNA deaminase assay. [Related pubchem assays (depositor defined):AID493011, AID493024]. The class given is functional.
The target in test [2] is DNA dC->dU-editing enzyme APOBEC-3G (Homo sapiens, UniProt Q9HC16). The class given is functional.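 Also: Dose-response counterscreen measuring inhibition of APOBEC3G DNA deaminase activity, run while confirming APOBEC3A inhibitors.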
Sequence of DNA dC->dU-editing enzyme APOBEC-3G (Q9HC16 whole entry): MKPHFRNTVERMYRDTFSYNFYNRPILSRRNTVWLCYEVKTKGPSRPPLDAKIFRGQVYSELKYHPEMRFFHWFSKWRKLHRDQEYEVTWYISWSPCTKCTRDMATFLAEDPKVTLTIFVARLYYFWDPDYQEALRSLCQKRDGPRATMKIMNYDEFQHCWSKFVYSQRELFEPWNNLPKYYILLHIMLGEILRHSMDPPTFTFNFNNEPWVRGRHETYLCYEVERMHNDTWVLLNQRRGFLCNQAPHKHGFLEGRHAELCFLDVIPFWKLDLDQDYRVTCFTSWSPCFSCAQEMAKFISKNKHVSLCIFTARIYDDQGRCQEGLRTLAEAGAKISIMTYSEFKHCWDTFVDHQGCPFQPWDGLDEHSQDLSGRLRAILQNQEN
The target of test [3] is Eukaryotic translation initiation factor 4H (Homo sapiens, UniProt Q15056). Put plainly: human eIF4H binding inhibitors, primary screen, translation initiation inhibitor project, biochemical, uHTS, fluorescence polarization (AID 2012). A general note: Polarisation of emitted light reports the rotation of a fluorescent probe.
Test [4] deals with Polyadenylate-binding protein 1 (Homo sapiens, UniProt P11940). Put plainly: PABP poly(A) RNA binding inhibitors, primary screen, biochemical, fluorescence polarization, uHTS (AID 2014).
Sequence of Polyadenylate-binding protein 1 (P11940 whole entry): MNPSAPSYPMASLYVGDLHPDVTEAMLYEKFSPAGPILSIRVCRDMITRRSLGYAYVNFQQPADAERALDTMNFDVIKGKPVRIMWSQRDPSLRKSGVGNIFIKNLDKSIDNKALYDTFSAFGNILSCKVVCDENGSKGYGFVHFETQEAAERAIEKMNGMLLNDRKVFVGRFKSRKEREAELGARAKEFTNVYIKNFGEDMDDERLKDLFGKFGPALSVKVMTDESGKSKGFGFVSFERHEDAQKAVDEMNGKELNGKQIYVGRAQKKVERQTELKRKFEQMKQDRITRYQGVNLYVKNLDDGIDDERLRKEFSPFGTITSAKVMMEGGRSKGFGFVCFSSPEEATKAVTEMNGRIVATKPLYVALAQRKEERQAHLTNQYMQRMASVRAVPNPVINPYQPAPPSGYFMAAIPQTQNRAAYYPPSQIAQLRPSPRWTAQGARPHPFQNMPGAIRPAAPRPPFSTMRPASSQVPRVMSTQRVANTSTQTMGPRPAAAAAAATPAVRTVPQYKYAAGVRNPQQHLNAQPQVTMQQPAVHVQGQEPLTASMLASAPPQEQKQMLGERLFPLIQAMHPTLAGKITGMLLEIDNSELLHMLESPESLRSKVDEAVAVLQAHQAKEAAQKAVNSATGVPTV
Test [5] is described as follows: inhibitors of Vif binding to APOBEC3G peptide, primary screen, biochemical, TR-FRET, GST-Vif 1-94, biotin-A3G peptide, dose response retest (AID 1117319).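 Also: inhibitors lower the FRET signal by blocking Vif and A3G binding.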 The format is functional. (In general: In TR-FRET formats the signal depends on donor and acceptor labels being close together.)
The target of test [6] is FAD-linked sulfhydryl oxidase ALR (Homo sapiens, UniProt P55789). Description: inhibitors of human ALR sulfhydryl oxidase, dose response, biochemical, H2O2 detection, luminescence, cherry-pick (AID 493248).
Sequence of FAD-linked sulfhydryl oxidase ALR (P55789 whole entry): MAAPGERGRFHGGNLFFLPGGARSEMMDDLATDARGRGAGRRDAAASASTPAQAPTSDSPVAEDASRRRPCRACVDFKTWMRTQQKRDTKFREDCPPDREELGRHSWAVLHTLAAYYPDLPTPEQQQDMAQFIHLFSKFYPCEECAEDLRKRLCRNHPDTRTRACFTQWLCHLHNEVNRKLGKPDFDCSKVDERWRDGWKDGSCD
Test [7] concerns the target T1, Rac GTPase-activating protein 1 (Homo sapiens, UniProt Q9H0H5).
T1 sequence (Q9H0H5 whole entry): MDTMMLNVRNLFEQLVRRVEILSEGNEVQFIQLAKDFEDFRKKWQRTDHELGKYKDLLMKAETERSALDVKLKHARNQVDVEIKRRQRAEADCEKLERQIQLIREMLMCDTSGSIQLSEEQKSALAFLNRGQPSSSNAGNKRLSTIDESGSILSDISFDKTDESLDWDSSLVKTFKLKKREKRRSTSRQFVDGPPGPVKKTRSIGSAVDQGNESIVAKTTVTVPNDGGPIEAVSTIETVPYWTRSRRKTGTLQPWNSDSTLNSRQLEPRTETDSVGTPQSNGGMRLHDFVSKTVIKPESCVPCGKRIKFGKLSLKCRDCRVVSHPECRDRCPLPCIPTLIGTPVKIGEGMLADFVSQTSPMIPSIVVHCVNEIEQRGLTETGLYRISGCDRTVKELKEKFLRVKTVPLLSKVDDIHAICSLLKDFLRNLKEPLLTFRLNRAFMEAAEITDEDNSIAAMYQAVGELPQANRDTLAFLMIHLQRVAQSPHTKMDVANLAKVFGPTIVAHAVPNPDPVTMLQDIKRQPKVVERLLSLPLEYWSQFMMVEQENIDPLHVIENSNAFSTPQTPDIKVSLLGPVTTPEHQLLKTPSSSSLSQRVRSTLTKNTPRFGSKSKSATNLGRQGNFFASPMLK
Description: MgcRacGAP GTPase-activating activity inhibitors, confirmation, biochemical, ADP Hunter fluorescence, primary and confirmatory (AID 624330). The format is functional.

For test [8], the target named is T2, Estrogen receptor (Homo sapiens, UniProt P03372).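 Also: potency for inhibiting coactivator peptide recruitment to the receptor.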
T2 sequence (P03372 whole entry): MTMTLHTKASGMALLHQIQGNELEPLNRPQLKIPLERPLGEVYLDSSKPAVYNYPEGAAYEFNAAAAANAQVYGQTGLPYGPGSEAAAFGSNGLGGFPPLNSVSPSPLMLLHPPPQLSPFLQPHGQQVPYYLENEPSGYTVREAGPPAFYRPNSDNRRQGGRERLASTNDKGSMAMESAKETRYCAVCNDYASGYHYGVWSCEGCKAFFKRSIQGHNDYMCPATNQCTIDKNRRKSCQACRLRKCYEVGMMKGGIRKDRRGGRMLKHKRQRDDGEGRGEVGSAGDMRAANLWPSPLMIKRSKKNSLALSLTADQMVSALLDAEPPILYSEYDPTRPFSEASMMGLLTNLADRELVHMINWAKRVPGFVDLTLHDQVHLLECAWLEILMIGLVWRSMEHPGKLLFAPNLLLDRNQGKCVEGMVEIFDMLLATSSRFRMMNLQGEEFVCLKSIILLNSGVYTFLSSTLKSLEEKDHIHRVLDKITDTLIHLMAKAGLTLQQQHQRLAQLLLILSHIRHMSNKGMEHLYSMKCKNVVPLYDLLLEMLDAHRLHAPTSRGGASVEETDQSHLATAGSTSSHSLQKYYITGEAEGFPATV

For test [9], the target named is T3, Aminopeptidase N (Plasmodium falciparum FcB1/Columbia, UniProt O96935).
T3 sequence (O96935 whole entry): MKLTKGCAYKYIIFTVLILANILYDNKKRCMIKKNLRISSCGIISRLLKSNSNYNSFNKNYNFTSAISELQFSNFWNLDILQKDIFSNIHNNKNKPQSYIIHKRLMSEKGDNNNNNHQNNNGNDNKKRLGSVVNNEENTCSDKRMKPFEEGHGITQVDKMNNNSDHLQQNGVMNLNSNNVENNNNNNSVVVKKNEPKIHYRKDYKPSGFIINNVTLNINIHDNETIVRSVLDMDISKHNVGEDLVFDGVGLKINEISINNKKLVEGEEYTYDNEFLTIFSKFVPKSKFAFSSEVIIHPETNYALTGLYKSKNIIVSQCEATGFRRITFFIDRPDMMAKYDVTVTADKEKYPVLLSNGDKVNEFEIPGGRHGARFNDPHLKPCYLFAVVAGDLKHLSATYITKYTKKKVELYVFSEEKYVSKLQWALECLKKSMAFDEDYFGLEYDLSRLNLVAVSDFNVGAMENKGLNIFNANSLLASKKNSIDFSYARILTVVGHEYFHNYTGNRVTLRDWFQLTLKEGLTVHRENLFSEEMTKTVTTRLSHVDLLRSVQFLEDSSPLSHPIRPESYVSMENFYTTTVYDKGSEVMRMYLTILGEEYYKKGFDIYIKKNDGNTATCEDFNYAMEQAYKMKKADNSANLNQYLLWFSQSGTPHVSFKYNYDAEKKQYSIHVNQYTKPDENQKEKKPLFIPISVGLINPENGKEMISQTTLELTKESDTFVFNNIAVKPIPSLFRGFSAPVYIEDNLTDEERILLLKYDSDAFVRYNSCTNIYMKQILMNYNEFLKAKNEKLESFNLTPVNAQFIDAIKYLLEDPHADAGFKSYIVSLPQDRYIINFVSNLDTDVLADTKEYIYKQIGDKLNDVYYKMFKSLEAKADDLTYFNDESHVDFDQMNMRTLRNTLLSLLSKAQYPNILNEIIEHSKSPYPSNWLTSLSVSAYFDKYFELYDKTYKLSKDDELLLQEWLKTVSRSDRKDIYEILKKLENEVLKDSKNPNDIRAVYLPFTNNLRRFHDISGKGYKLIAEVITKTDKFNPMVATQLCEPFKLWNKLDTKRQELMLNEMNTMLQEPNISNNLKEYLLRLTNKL
Description: P. falciparum M1AAP inhibitors, biochemical, fluorogenic H-Leu-NHMec substrate, 1536-well (AID 1445). Also noted: species or system Plasmodium falciparum 3D7, 3D7.

For test [10], the target named is Large T antigen (Simian virus 40, UniProt P03070). The class given is functional, Betapolyomavirus macacae.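 Also: Confirmatory-stage PubChem screen for compounds that inhibit SV40 T antigen.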
Sequence of Large T antigen (P03070 whole entry): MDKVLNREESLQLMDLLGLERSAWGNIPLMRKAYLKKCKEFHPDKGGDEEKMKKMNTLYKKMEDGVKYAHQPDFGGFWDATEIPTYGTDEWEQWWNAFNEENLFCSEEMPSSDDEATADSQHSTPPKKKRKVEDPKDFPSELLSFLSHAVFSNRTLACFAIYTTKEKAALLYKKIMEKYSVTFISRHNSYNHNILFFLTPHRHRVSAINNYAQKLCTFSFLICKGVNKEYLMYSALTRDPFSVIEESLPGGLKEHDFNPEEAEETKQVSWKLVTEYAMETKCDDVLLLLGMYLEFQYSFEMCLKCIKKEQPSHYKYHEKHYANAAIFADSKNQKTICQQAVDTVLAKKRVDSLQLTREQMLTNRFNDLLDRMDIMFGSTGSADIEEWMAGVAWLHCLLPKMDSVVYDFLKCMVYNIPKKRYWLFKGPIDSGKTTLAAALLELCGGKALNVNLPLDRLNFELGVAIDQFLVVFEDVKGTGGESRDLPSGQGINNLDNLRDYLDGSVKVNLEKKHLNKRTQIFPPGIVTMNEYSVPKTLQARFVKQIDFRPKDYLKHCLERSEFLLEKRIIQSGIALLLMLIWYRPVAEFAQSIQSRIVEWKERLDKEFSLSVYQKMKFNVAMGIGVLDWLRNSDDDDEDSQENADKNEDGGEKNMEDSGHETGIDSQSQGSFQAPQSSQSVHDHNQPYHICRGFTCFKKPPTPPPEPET
For test [11], the target named is Prothrombin (Homo sapiens, UniProt P00734). Put plainly: Thrombin 1536 HTS Dose Response Confirmation. [Related pubchem assays: 1046 (Thrombin 1536 HTS; hits were confirmed in this assay)]. The format is functional.
For test [12], the target named is T4, Aryl hydrocarbon receptor (Homo sapiens, UniProt P35869).
T4 sequence (P35869 whole entry): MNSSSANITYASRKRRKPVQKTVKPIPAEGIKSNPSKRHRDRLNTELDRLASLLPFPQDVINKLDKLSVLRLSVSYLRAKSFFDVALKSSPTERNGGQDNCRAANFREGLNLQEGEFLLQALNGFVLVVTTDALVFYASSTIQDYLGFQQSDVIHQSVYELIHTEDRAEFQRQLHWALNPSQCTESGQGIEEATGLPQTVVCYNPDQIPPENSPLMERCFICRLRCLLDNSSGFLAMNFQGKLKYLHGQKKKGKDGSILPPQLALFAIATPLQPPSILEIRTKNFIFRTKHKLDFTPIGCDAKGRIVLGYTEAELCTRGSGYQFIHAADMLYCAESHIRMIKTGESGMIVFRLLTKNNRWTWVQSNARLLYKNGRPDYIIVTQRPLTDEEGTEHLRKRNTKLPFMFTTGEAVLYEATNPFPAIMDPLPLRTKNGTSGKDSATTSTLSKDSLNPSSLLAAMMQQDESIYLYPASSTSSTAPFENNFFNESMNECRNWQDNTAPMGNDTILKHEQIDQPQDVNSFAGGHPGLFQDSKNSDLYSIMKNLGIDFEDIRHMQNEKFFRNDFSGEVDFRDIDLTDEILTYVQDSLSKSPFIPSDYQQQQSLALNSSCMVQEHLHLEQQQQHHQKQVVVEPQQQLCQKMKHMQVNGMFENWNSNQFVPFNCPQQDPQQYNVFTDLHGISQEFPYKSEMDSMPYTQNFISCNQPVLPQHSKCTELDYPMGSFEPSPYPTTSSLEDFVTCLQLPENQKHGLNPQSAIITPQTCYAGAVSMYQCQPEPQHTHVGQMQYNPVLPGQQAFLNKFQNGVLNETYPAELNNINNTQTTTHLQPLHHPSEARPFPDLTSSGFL
Description: Luminescence-based cell-based high throughput dose response assay for activators of the Aryl Hydrocarbon Receptor (AHR). [Related pubchem assays: 2796 (Primary screen (AHR activators in singlicate)), 2845 (Confirmation screen (AHR activators in triplicate)), 434939 (Counterscreen (PXR activators in triplicate)), 2804 (Summary (AHR activators))]. The format is ADME. In general terms: A counterscreen serves to expose hits that act by an unwanted route or on another target.

Test [13] concerns H9c2. Description: cells. Conditions: Rattus norvegicus, H9c2, Myocardium. The class given is functional, cell-based.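 Also: confirmatory concentration-response retest of ultra-high-throughput screening hits for modulation of myocardial damage; cell death induced by hydrogen peroxide oxidative stress; compound pretreatment for 60 min then peroxide exposure for 2 h; potency is for protecting the cells against peroxide damage rather than for killing them.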
The target of test [14] is Nonstructural protein 1 (Influenza A virus, UniProt Q194T2). The class given is functional, Influenza A virus (A/California/07/2009(H1N1)).
Sequence of Nonstructural protein 1 (Q194T2 whole entry): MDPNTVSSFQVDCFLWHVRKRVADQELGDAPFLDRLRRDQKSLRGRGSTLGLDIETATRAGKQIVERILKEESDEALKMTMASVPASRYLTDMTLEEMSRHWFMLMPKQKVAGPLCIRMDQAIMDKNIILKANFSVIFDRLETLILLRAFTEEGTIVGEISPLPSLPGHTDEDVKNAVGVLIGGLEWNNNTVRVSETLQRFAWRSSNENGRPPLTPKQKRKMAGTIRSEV
Test [15] is described as follows: C. albicans growth with fluconazole, confirmation, fluorescence, retest (AID 2467). The format is functional, cell-based.
Test [16] can be described thus: NIH-3T3 fibroblast cytotoxicity, dose response, cytotoxicity control, cell-based, fluorescence, Alamar Blue, secondary assay (AID 2327).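 Also: NIH-3T3 mouse fibroblasts cultured with fluconazole at 8 µg/mL.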 The format is functional.

Calls of active or inactive are those of the source. Bounds are passed on as bounds.

Sequence of DNA dC->dU-editing enzyme APOBEC-3A (P31941 whole entry): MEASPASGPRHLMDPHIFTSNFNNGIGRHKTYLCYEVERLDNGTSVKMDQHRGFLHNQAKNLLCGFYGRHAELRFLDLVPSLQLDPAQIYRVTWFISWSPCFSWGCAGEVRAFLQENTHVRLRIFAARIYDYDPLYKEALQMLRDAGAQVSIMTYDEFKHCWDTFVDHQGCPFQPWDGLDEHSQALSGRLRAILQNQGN

As for `COc1ccc(N(CC(=O)N2CCCCCC2)S(=O)(=O)c2ccccc2[N+](=O)[O-])c(OC)c1`, the IC50 in [1] is 5.63 µM (active); in test [2], 4.83 µM (active); in test [3] it was > 100 µM (inactive); in test [4], 11.9 µM (active).

In the case of `CCN(CC)c1ccc(NC(=O)c2ccc(Br)o2)cc1`, the values for the IC50 in test [5] and in [7] were > 100 µM (active) and 25.9 µM (active), respectively. In [6], the AC50 is 0.745 µM (active).

`COc1cc(-c2nnc(-c3ccc(S(=O)(=O)c4ccccc4)cc3)o2)cc(OC)c1OC`: in test [8], the IC50 is > 50 µM (not active). On the same count and under the same terms, with `O=C(Nc1nc2ccccc2s1)c1cc2c(s1)-c1ccccc1OC2` the figure was > 50 µM (not active). `CCOC(=O)C1CCN(S(=O)(=O)c2cccc(-c3cn4cccc(C)c4n3)c2)CC1`: in test [5], the IC50 is > 100 µM (active). Turning to `COc1ccccc1N1CCN(C(=O)c2cc(-c3cccs3)on2)CC1`, the half-maximal inhibitory concentration (IC50) in test [5] is > 100 µM (active). Take `COc1cc(/C=C2\SC(=S)N(C(Cc3ccccc3)C(=O)O)C2=O)ccc1O` (centres undefined): the results for the IC50 in test [9] and in [10] were 42.3 µM (active) and 65 µM (active), respectively. Take `CCC(=O)n1nc(-c2ccc(Cl)cc2)nc1SC`: in test [11], the IC50 is 7.14 µM (active). Same read-out and setting: with `Nc1nncn1C(=O)CCc1ccccc1` the figure was 0.605 µM (active); with `COc1ccccc1NC(=O)C1C2CCCCC21` (centres undefined), > 50 µM (not active).

As to `Cn1c(N)c(C(=O)Nc2ccccc2F)sc1=S`, in test [12], the EC50 is 0.857 µM (active). `C[n+]1cnn2c1SCC1(COC1)C2`: the IC50 in test [3] was > 100 µM (inactive); in test [4], 4.59 µM (active).

Take `CCCS(=O)(=O)N1CCC(C(=O)NCc2ccc(F)cc2)CC1`: in test [9], the IC50 was 31.6 µM (active).

`COC(=O)C1CC(=O)c2ccsc2C1` (centres undefined): the IC50 in [11] is listed as > 50 µM (not active).

With `CC(=O)n1cc(/C=N/NC(=O)c2sc(C)nc2C)c2ccccc21`, the EC50 in test [12] was > 91.7 µM (not active). In addition, the IC50 in [13] is > 79 µM (inactive).

In the case of `Cn1c(=O)c2c(nc(/C=C/c3cccc(Cl)c3)n2C)n(C)c1=O`, the EC50 in [12] is 3.34 µM (active). Take `Oc1ccc(/C=N/N(c2ccccc2)c2ccccc2)c(O)c1O`: the figures for the IC50 in [14], in test [3] and in test [4] were 47.6 µM (active), 31.7 µM (active) and > 100 µM (inactive), respectively. Further, the EC50 is > 38 µM (not active) in test [15] and > 160 µM (inactive) in [16].

The IC50 is the concentration needed to halve the response being measured. Usually AC50 stands for the concentration at which the activity in the assay is half-maximal. By EC50 is commonly meant the concentration needed to bring the measured effect to its halfway point.
